One data set is described as follows: in vitro. Particulars: human, CC50.

Values after ≈ are worked out from the molar mass of the structure shown.

What is called melting point is the temperature, or range, at which the solid turns liquid. The molecule `CCC(C)(C)c1ccc(OC(C)=O)c(C2(OC(C)=O)C(=O)c3ccccc3C2=O)c1` [Example 17, 2-(2-Acetoxy-1,3-dioxo-2,3-dihydro-1H-inden-2-yl)-4-tert-pentylphenyl acetate] registered a melting point of 146 to 151 °C. In “in vitro”, this molecule gave a CC50 of 9.3 µg/mL.

Take `CC(=O)Oc1cc(C)cc(C2(OC(C)=O)C(=O)c3ccccc3C2=O)c1OC(C)=O` [Example 18, Acetic acid 2-(2,3-diacetoxy-5-methyl-phenyl)-1,3-dioxo-indan-2-yl ester]: the melting point was in the range of 192 to 194 °C. The molecule also had a CC50 in the data set “in vitro” greater than 100 µg/mL.

In the case of `CC(=O)c1ccc(C2(O)C(=O)c3ccccc3C2=O)c(O)c1` [Example 20, 2-(4-Acetyl-2-hydroxy-phenyl)-2-hydroxy-indan-1,3-dione], the melting point was in the range of 177 to 180 °C. The CC50 in “in vitro” was greater than 100 µg/mL.

For `CC(C)c1ccc(C2(O)C(=O)c3ccccc3C2=O)c(OCc2ccccc2)c1` [Example 24, 2-(2-Benzyloxy-4-isopropyl-phenyl)-2-hydroxy-indan-1,3-dione], the melting point lay within 197 to 199 °C. In “in vitro”, the CC50 is greater than 100 µg/mL.

In the case of `COC1(c2ccc(C(C)C)cc2OCc2ccccc2)C(=O)c2ccccc2C1=O` [Example 25, 2-(2-Benzyloxy-4-isopropyl-phenyl)-2-methoxy-indan-1,3-dione], the melting point lay in the range of 140 to 144 °C. This molecule returned a CC50 in the data set “in vitro” greater than 100 µg/mL.

`Cc1cc(C2(O)C(=O)c3ccccc3C2=O)cc(C)c1O` [Example 26, 2-Hydroxy-2-(4-hydroxy-3,5-dimethyl-phenyl)-indan-1,3-dione] yielded a melting point of 210 to 213 °C. For the same molecule, in “in vitro”, the CC50 is greater than 100 µg/mL.

In the case of `COc1ccc2c(c1)C(=O)C(OC(C)=O)(c1ccc(C(C)C)cc1OC(C)=O)C2=O` (centres unmarked) [Example 27, 2-(2-Acetoxy-4-isopropylphenyl)-5-methoxy-1,3-dioxo-2,3-dihydro-1H-inden-2-yl acetate], the melting point lay within 146 to 148 °C. In the data set “in vitro”, this molecule displayed a CC50 of 9.5 µg/mL.

Take `COC1(c2ccc(C(C)C)cc2O)C(=O)c2ccccc2C1=O` [Example 28, 2-(2-Hydroxy-4-isopropylphenyl)-2-methoxy-1H-inden-1,3(2H)-dione]: the melting point is 272 to 274 °C. Moreover, in “in vitro”, the CC50 was 9.2 µg/mL (≈ 29.6 µM).

Molecule `CC(C)c1ccc(C2(OC(=O)C(C)(C)C)C(=O)c3ccccc3C2=O)c(OC(=O)C(C)(C)C)c1` [Example 29, 2-(1,3-Dioxo-2-(pivaloyloxy)-2,3-dihydro-1H-inden-2-yl)-5-isopropylphenyl pivalate] had a melting point of 121 to 124 °C. In “in vitro”, this molecule registered a CC50 greater than 100 µg/mL.

`CCN(CC)C(=O)Oc1cc(C(C)C)ccc1C1(OC(=O)N(CC)CC)C(=O)c2ccccc2C1=O` [Example 33, Diethyl-carbamic acid 2-(2-diethylcarbamoyloxy-1,3-dioxo-indan-2-yl)-5-isopropyl-phenyl ester] displayed a melting point of 103 to 105 °C. The same molecule registered a CC50 in the data set “in vitro” greater than 100 µg/mL.

Molecule `CCN(CC)C(=O)Oc1cc(C(C)C)ccc1C1(O)C(=O)c2ccccc2C1=O` [Example 34, 2-(2-Hydroxy-1,3-dioxo-2,3-dihydro-1H-inden-2-yl)-5-isopropylphenyl diethylcarbamate] showed a melting point of 103 to 106 °C. Moreover, the CC50 in “in vitro” turned out to be 46.2 µg/mL (≈ 117 µM).

The molecule `Cc1cc(C2(O)C(=O)c3ccccc3C2=O)c(C)cc1O` [Example 35, 2-Hydroxy-2-(4-hydroxy-2,5-dimethylphenyl)-1H-inden-1,3(2H)-dione] gave a melting point of 228 to 230 °C. For the same molecule, the CC50 in the data set “in vitro” came out at 59.8 µg/mL (≈ 212 µM).

Molecule `CC(=O)Oc1cc(C(C)C)ccc1C1(OC(C)=O)C(=O)c2cccc([N+](=O)[O-])c2C1=O` (centres unmarked) [Example 37, Acetic acid 2-(2-acetoxy-4-isopropyl-phenyl)-4-nitro-1,3-dioxo-indan-2-yl ester] yielded a melting point of 94 to 98 °C. In “in vitro”, the CC50 is 62.7 µg/mL (≈ 147 µM).

Molecule `COc1cc(C(C)C)ccc1C1(Cl)C(=O)c2cccc([N+](=O)[O-])c2C1=O` (centres unmarked) [Example 39, 2-Chloro-2-(4-isopropyl-2-methoxyphenyl)-4-nitro-2H-inden-1,3-dione] came in with a melting point of 81 to 84 °C. Further, in “in vitro”, the CC50 turned out to be 6.67 µg/mL (≈ 17.8 µM).

`COc1cc(C(C)C)ccc1C1(O)C(=O)c2c(NC(C)=O)ccc([N+](=O)[O-])c2C1=O` (centres unmarked) [Example 42, N-(2-Hydroxy-2-(4-isopropyl-2-methoxyphenyl)-7-nitro-1,3-dioxo-2,3-dihydro-1H-inden-4-yl)acetamide]: the melting point is 110 to 115 °C. Also, the CC50 in the data set “in vitro” came out at 71.1 µg/mL (≈ 172 µM).

Molecule `COc1cc(C(C)C)ccc1C1(O)C(=O)c2ccc([N+](=O)[O-])c(NC(C)=O)c2C1=O` (centres unmarked) [Example 43, N-(2-Hydroxy-2-(4-isopropyl-2-methoxyphenyl)-5-nitro-1,3-dioxo-2,3-dihydro-1H-inden-4-yl)acetamide] gave a melting point of 199 to 201 °C. In the data set “in vitro”, this molecule gave a CC50 of 61.7 µg/mL (≈ 150 µM).

The molecule `COc1cc(C(C)C)ccc1C1(O)C(=O)c2ccc(N)c(NC(C)=O)c2C1=O` (centres unmarked) [Example 45, N-(5-Amino-2-hydroxy-2-(4-isopropyl-2-methoxyphenyl)-1,3-dioxo-2,3-dihydro-1H-inden-4-yl)acetamide] had a melting point of 124 to 131 °C. The same molecule showed a CC50 in “in vitro” greater than 117 µg/mL.

In the case of `COc1cc(C(C)C)ccc1C1(O)C(=O)c2c(N)ccc(N)c2C1=O` [Example 46, 4,7-Diamino-2-hydroxy-2-(4-isopropyl-2-methoxyphenyl)-2H-inden-1,3-dione], the melting point fell in the range of 243 to 247 °C. In addition, the CC50 in “in vitro” came to 64 µg/mL (≈ 188 µM).

As for `COc1cc(C(C)C)ccc1C1(O)C(=O)c2ccc(N)c(N)c2C1=O` (centres unmarked) [Example 47, 4,5-Diamino-2-hydroxy-2-(4-isopropyl-2-methoxyphenyl)-2H-inden-1,3-dione], the melting point lay in the range of 272 to 274 °C. This molecule gave a CC50 in “in vitro” of 50.9 µg/mL (≈ 150 µM).

In the case of `CC(C)c1ccc(C2(O)Cc3ccccc3C2=O)c(O)c1` (centres unmarked) [Example 51, 2-Hydroxy-2-(2-hydroxy-4-isopropylphenyl)-2,3-dihydro-1H-inden-1-one], the melting point was in the range of 144 to 146 °C. Further, the CC50 in “in vitro” was found to be 9.34 µg/mL (≈ 33.1 µM).

Consider `COc1cc(C(C)C)ccc1C1(N=[N+]=[N-])C(=O)c2ccccc2C1=O` [Example 52, 2-Azido-2-(4-isopropyl-2-methoxyphenyl)-2H-inden-1,3-dione], for which the melting point lay in the range of 175 to 177 °C. In the data set “in vitro”, this molecule came in with a CC50 of 27.7 µg/mL (≈ 82.5 µM).

`COc1cc(C(C)C)ccc1C1(N)C(=O)c2ccccc2C1=O` [Example 53, 2-Amino-2-(4-isopropyl-2-methoxyphenyl)-2H-inden-1,3-dione]: the melting point is 164 to 166 °C. This molecule had a CC50 in “in vitro” of 10.2 µg/mL (≈ 33 µM).

`COc1cc(C(C)C)ccc1C1(NC(=O)c2ccccc2)C(=O)c2ccccc2C1=O` [Example 55, N-(2-(4-Isopropyl-2-methoxyphenyl)-1,3-dioxo-2,3-dihydro-1H-inden-2-yl)benzamide] yielded a melting point of 106 to 108 °C. The same molecule had a CC50 in “in vitro” greater than 117 µg/mL.

Molecule `COc1cc(C(C)C)ccc1C1(NC(=O)C2CC2)C(=O)c2ccccc2C1=O` [Example 56, N-(2-(4-Isopropyl-2-methoxyphenyl)-1,3-dioxo-2,3-dihydro-1H-inden-2-yl) cyclopropancarboxamide] gave a melting point of 145 to 147 °C. Further, the CC50 in “in vitro” was determined as 87.8 µg/mL (≈ 233 µM).

`CSc1ccccc1C1(O)C(=O)c2ccccc2C1=O` [Example 57] yielded a melting point of 191 to 193 °C. In “in vitro”, this molecule registered a CC50 of 48.2 µg/mL (≈ 170 µM).

Molecule `CSc1ccc(C2(O)C(=O)c3ccccc3C2=O)cc1` [Example 58] gave a melting point of 153 to 155 °C. The CC50 in “in vitro” worked out at 47.8 µg/mL (≈ 168 µM).

For `COC(=O)NC1(c2ccc(C(C)C)cc2OC)C(=O)c2ccccc2C1=O` [Example 59, Methyl 2-(4-isopropyl-2-methoxyphenyl)-1,3-dioxo-2,3-dihydro-1H-inden-2-ylcarbamate], the melting point lay in the range of 153 to 155 °C. In addition, the CC50 in “in vitro” was 53.7 µg/mL (≈ 146 µM).

`CCNC(=O)NC1(c2ccc(C(C)C)cc2OC)C(=O)c2ccccc2C1=O` [Example 60, 1-Ethyl-3-(2,3-dihydro-2-(4-isopropyl-2-methoxyphenyl)-1,3-dioxo-1H-inden-2-yl)urea] showed a melting point of 267 to 269 °C. Moreover, the CC50 in the data set “in vitro” came to 68.9 µg/mL (≈ 181 µM).

In turn, `COc1cc(C(C)C)ccc1C1(NC(N)=O)C(=O)c2ccccc2C1=O` [Example 61, 1-(2,3-Dihydro-2-(4-isopropyl-2-methoxyphenyl)-1,3-dioxo-1H-inden-2-yl)urea] came in with a melting point of 272 to 274 °C. The molecule further returned a CC50 in the data set “in vitro” greater than 117 µg/mL.

In turn, `COc1cc(C(C)C)ccc1C1(NC(=O)OC(C)C)C(=O)c2ccccc2C1=O` [Example 62, Isopropyl 2-(4-isopropyl-2-methoxyphenyl)-1,3-dioxo-2,3-dihydro-1H-inden-2-ylcarbamate] yielded a melting point of 159 to 161 °C. The CC50 in the data set “in vitro” came out at 11.3 µg/mL (≈ 28.5 µM).

With `CONC(=O)NC1(c2ccc(C(C)C)cc2OC)C(=O)c2ccccc2C1=O` [Example 63, 1-(2-(4-Isopropyl-2-methoxyphenyl)-1,3-dioxo-2,3-dihydro-1H-inden-2-yl)-3-methoxy urea], the melting point lay in the range of 153 to 155 °C. In addition, the CC50 in “in vitro” was greater than 117 µg/mL.

The molecule `CCOC(=O)NC1(c2ccc(C(C)C)cc2OC)C(=O)c2ccccc2C1=O` [Example 64, Ethyl 2-(4-isopropyl-2-methoxyphenyl)-1,3-dioxo-2,3-dihydro-1H-inden-2-ylcarbamate] displayed a melting point of 149 to 150 °C. This molecule returned a CC50 in the data set “in vitro” of 87.8 µg/mL (≈ 230 µM).

Take `COc1cc(C(C)C)ccc1C1(Br)C(=O)c2cccc(NC(C)=O)c2C1=O` (centres unmarked) [Example 65, N-(2-Bromo-2-(4-isopropyl-2-methoxyphenyl)-1,3-dioxo-2,3-dihydro-1H-inden-4-yl)acetamide]: the melting point lay within 143 to 145 °C. In “in vitro”, the CC50 was 11.2 µg/mL (≈ 25.9 µM).

`COc1cc(C(C)C)ccc1C1(N)C(=O)c2cccc(NC(C)=O)c2C1=O` (centres unmarked) [Example 66, N-(2-Amino-2-(4-isopropyl-2-methoxyphenyl)-1,3-dioxo-2,3-dihydro-1H-inden-4-yl)acetamide] returned a melting point of 183 to 185 °C. In “in vitro”, this molecule had a CC50 of 26.7 µg/mL (≈ 72.8 µM).
